Counter-ions that a name gives are not always drawn.
Test system: Utrophin A promoter linked to a luciferase reporter gene (H2K/mdx/Utro A reporter cell line)
Assay: Luciferase reporter assay (murine H2K cells)
Settings: for activity at 10 µM: Mus musculus, H2K mdx

Nc1ccc(-c2nc3ccccc3[nH]2)cc1 [Example 475, 4-(1H-benzo[d]imidazol-2-yl)aniline]
activity at 10 µM: < 200%

CC(C)(C)c1ccc2oc(-c3ccc(N)cc3)nc2c1 [Example 593, 4-(5-Tert-butylbenzo[d]oxazol-2-yl)aniline]
activity at 10 µM: 301 to 400%

O=S(=O)(c1ccc(-c2nc3ccccc3s2)cc1)N1CCCCC1 [Example 516, 2-(4-(piperidin-1-ylsulfonyl)phenyl)benzo[d]thiazole]
activity at 10 µM: 201 to 300%

CC(=O)Nc1cccc(-c2nc3ccccc3s2)c1 [Example 513, N-(3-(benzo[d]thiazol-2-yl)phenyl)acetamide]
activity at 10 µM: < 200%

CNC(=O)Nc1ccc2nc(C)oc2c1 [Example 467, 1-methyl-3-(2-methylbenzo[d]oxazol-6-yl)urea]
activity at 10 µM: < 200%

Clc1cccc(-c2nc3ccccc3[nH]2)c1 [Example 514, 2-(3-chlorophenyl)-1H-benzo[d]imidazole]
activity at 10 µM: < 200%

Fc1ccccc1-c1nc2ccccc2[nH]1 [Example 507, 2-(2-fluorophenyl)-1H-benzo[d]imidazole]
activity at 10 µM: 201 to 300%

COc1ccccc1-c1nc2ccccc2s1 [Example 522, 2-(2-methoxyphenyl)benzo[d]thiazole]
activity at 10 µM: < 200%

Nc1ccc2[nH]c(-c3ccco3)nc2c1 [Example 510, 2-(furan-2-yl)-1H-benzo[d]imidazol-5-amine dihydrochloride]
activity at 10 µM: < 200%

CCc1ccc2oc(-c3ccc(N)cc3)nc2c1 [Example 553, 4-(5-ethylbenzo[d]oxazol-2-yl)aniline]
activity at 10 µM: > 401%

Cc1nn(-c2nc3ccccc3[nH]2)c(N)c1-c1ccccc1 [Example 659, 1-(1H-benzo[d]imidazol-2-yl)-3-methyl-4-phenyl-1H-pyrazol-5-amine]
activity at 10 µM: 301 to 400%

CCS(=O)(=O)c1ccc2ocnc2c1 [Example 573, 5-(ethylsulfonyl)benzo[d]oxazole]
activity at 10 µM: < 200%

Cc1ccc2nc(-c3ccc(N)cc3)sc2c1 [Example 664, 4-(6-methylbenzo[d]thiazol-2-yl)aniline]
activity at 10 µM: 201 to 300%

Nc1ccc2oc(-c3ccccc3F)nc2c1 [Example 569, 2-(2-fluorophenyl)benzo[d]oxazol-5-amine]
activity at 10 µM: 301 to 400%

Cc1cccc(NC(=O)c2sc3nc(C)cc(C)c3c2N)c1 [Example 650, 3-amino-4,6-dimethyl-N-m-tolylthieno[2,3-b]pyridine-2-carboxamide]
activity at 10 µM: 301 to 400%

CC(C)C(=O)Nc1ccc(-c2nc3ccccc3s2)cc1 [Example 651, N-(4-(benzo[d]thiazol-2-yl)phenyl)isobutyramide]
activity at 10 µM: 301 to 400%

Cc1cc2nc(-c3ccc(N)cc3)oc2cc1C [Example 485, 4-(5,6-dimethylbenzo[d]oxazol-2-yl)aniline]
activity at 10 µM: 201 to 300%

COc1ccc(-c2nc3ccccc3s2)cc1O [Example 596, 5-(Benzo[d]thiazol-2-yl)-2-methoxyphenol]
activity at 10 µM: > 401%

c1ccc2sc(-c3ccc4c(c3)OCO4)nc2c1 [Example 608, 2-(Benzo[d][1,3]dioxol-5-yl)benzo[d]thiazole]
activity at 10 µM: > 401%

O=[N+]([O-])c1cc(-c2nc3ccccc3s2)ccc1Cl [Example 523, 2-(4-chloro-3-nitrophenyl)benzo[d]thiazole]
activity at 10 µM: < 200%

COc1ccc(-c2nc3cc(N)ccc3[nH]2)cc1 [Example 535, 2-(4-methoxyphenyl)-1H-benzo[d]imidazol-5-amine]
activity at 10 µM: 201 to 300%

c1ccc2nc(-c3nc4ccccc4s3)ccc2c1 [Example 639, 2-(quinolin-2-yl)benzo[d]thiazole]
activity at 10 µM: 301 to 400%

Cn1c(CNc2ccc(Cl)cc2)nc2ccccc21 [Example 666, 4-chloro-N-((1-methyl-1H-benzo[d]imidazol-2-yl)methyl)aniline]
activity at 10 µM: 201 to 300%

COc1cccc(-c2nc3ccccc3s2)c1 [Example 606, 2-(3-Methoxyphenyl)benzo[d]thiazole]
activity at 10 µM: 301 to 400%

Cc1ccc(NC(=O)Nc2nc3ccccc3s2)cc1 [Example 637, 1-(benzo[d]thiazol-2-yl)-3-p-tolylurea]
activity at 10 µM: 301 to 400%

Nc1ccc(-c2nc3ccccc3o2)cc1 [Example 478, 4-(benzo[d]oxazol-2-yl)aniline]
activity at 10 µM: 201 to 300%

O=C(Nc1ccc(-c2nc3ccccc3[nH]2)cc1)c1cccs1 [Example 585, N-(4-(1H-Benzo[d]imidazol-2-yl)phenyl)thiophene-2-carboxamide]
activity at 10 µM: > 401%

Nc1ccc(O)c(-c2nc3cc(N)ccc3s2)c1 [Example 550, 4-amino-2-(5-aminobenzo[d]thiazol-2-yl)phenol]
activity at 10 µM: < 200%

c1ccc(OCc2nc3ccccc3s2)cc1 [Example 633, 2-(phenoxymethyl)benzo[d]thiazole]
activity at 10 µM: 301 to 400%

COc1ccc(OCc2nc3ccccc3[nH]2)cc1 [Example 473, 2-((4-methoxyphenoxy)methyl)-1H-benzo[d]imidazole]
Activity (Table 2, luciferase level relative to control, final concentration of 10 μM): ++ (Between 201% and 300% relative to control)

CC(=O)Nc1ccc(-c2nc3ccccc3[nH]2)cc1 [Example 591, N-(4-(1H-Benzo[d]imidazol-2-yl)phenyl)acetamide]
activity at 10 µM: 301 to 400%

CCOCC(=O)Nc1ccc(-c2nc3ccc(C)cc3s2)cc1 [Example 657, 2-ethoxy-N-(4-(6-methylbenzo[d]thiazol-2-yl)phenyl)acetamide]
activity at 10 µM: 301 to 400%

c1csc(-c2nc3cc4ccccc4cc3[nH]2)c1 [Example 561, 2-(thiophen-2-yl)-1H-naphtho[2,3-d]imidazole]
activity at 10 µM: 301 to 400%

O=C(Nc1ccc(-c2nc3ncccc3o2)cc1)c1ccccc1Cl [Example 641, 2-chloro-N-(4-(oxazolo[4,5-b]pyridin-2-yl)phenyl)benzamide]
activity at 10 µM: 301 to 400%

CCCCc1nc2cc(S(=O)(=O)CC)ccc2o1 [Example 570, 2-butyl-5-(ethylsulfonyl)benzo[d]oxazole]
activity at 10 µM: < 200%

Cc1ccc2oc(-c3ccc(Cl)c(N)c3)nc2c1 [Example 636, 2-chloro-5-(5-methylbenzo[d]oxazol-2-yl)aniline]
activity at 10 µM: 301 to 400%

Cc1cc2oc(C(=O)NCc3ccncc3)c(C)c2cc1C [Example 656, 3,5,6-trimethyl-N-(pyridin-4-ylmethyl)benzofuran-2-carboxamide]
activity at 10 µM: 301 to 400%

CC(=O)Nc1cccc(-c2ccc3oc(-c4ccc(Cl)cc4)nc3c2)c1 [Example 575, N-(3-(2-(4-chlorophenyl)benzo[d]oxazol-5-yl)phenyl)acetamide]
activity at 10 µM: > 401%

Cc1cc2nc(-c3cccc(NC(=O)c4ccco4)c3)oc2cc1C [Example 623, N-(3-(5,6-dimethylbenzo[d]oxazol-2-yl)phenyl)furan-2-carboxamide]
activity at 10 µM: > 401%

c1ccc(OCc2nc3ccccc3[nH]2)cc1 [Example 471, 2-(phenoxymethyl)-1H-benzo[d]imidazole]
activity at 10 µM: 201 to 300%

Cc1cc(-c2nc3ccccc3o2)ccc1[N+](=O)[O-] [Example 607, 2-(3-Methyl-4-nitrophenyl)benzo[d]oxazole]
activity at 10 µM: > 401%

CCc1ccc2oc(-c3ccc(C)c(N)c3)nc2c1 [Example 625, 5-(5-ethylbenzo[d]oxazol-2-yl)-2-methylaniline]
activity at 10 µM: > 401%

Cc1nc(Nc2nc3ccccc3o2)nc2c1CCC2 [Example 678, N-(4-methyl-6,7-dihydro-5H-cyclopenta[d]pyrimidin-2-yl)benzo[d]oxazol-2-amine]
activity at 10 µM: 201 to 300%

C(=C\c1nc2ccccc2[nH]1)/c1ccccc1 [Example 547, (E)-2-styryl-1H-benzo[d]imidazole]
activity at 10 µM: 301 to 400%

c1csc(-c2nc3ccccc3[nH]2)c1 [Example 463, 2-(thiophen-2-yl)-1H-benzo[d]imidazole]
activity at 10 µM: < 200%

Nc1ccc(Oc2ccc(-c3nc4ccccc4[nH]3)cc2)cc1 [Example 557, 4-(4-(1H-benzo[d]imidazol-2-yl)phenoxy)aniline]
activity at 10 µM: > 401%

CN(C)S(=O)(=O)c1ccc2nc(NC(=O)c3cccs3)sc2c1 [Example 683, N-(6-(N,N-dimethylsulfamoyl)benzo[d]thiazol-2-yl)thiophene-2-carboxamide]
activity at 10 µM: 201 to 300%

O=C(Nc1ccccc1-c1nc2ccccc2[nH]1)c1ccc(Cl)cc1Cl [Example 500, N-(2-(1H-benzo[d]imidazol-2-yl)phenyl)-2,4-dichlorobenzamide]
activity at 10 µM: < 200%

Cc1ccc(-c2nc3ccccc3[nH]2)cc1NC(=O)C(F)(F)F [Example 568, N-(5-(1H-benzo[d]imidazol-2-yl)-2-methylphenyl)-2,2,2-trifluoroacetamide]
activity at 10 µM: 301 to 400%

COc1ccc(-c2nc3ccccc3[nH]2)cc1 [Example 470, 2-(4-methoxyphenyl)-1H-benzo[d]imidazole]
activity at 10 µM: 201 to 300%

CCCS(=O)(=O)c1ccc2oc(-c3ccc(Cl)cc3)nc2c1 [Example 578, 2-(4-chlorophenyl)-5-(propylsulfonyl)benzo[d]oxazole]
activity at 10 µM: < 200%

O=[N+]([O-])c1ccc2oc(-c3ccc(F)cc3)nc2c1 [Example 525, 2-(4-fluorophenyl)-5-nitrobenzo[d]oxazole]
activity at 10 µM: < 200%

O=C(Nc1nc2ccccc2s1)c1cc2ccccc2o1 [Example 626, N-(benzo[d]thiazol-2-yl)benzofuran-2-carboxamide]
activity at 10 µM: > 401%

O=C(NCCc1ccccc1)c1cc2ccccc2o1 [Example 665, N-phenethylbenzofuran-2-carboxamide]
activity at 10 µM: 201 to 300%

c1ccc(NNc2nc3ccccc3s2)cc1 [Example 552, 2-(2-phenylhydrazinyl)benzo[d]thiazole]
activity at 10 µM: < 200%

Cn1c(-c2ccc(Cl)cc2)nc2ccccc21 [Example 541, 2-(4-chlorophenyl)-1-methyl-1H-benzo[d]imidazole]
activity at 10 µM: 201 to 300%

COc1cccc(-c2nc3ccccc3[nH]2)c1 [Example 600, 2-(3-Methoxyphenyl)-1H-benzo[d]imidazole]
activity at 10 µM: 201 to 300%

Cc1c(N)cccc1-c1nc2cc(Cl)ccc2o1 [Example 566, 3-(5-chlorobenzo[d]oxazol-2-yl)-2-methylaniline]
activity at 10 µM: < 200%

Source: patent US8518980B2, “Treatment of Duchenne muscular dystrophy” (Summit Corporation PLC, priority 2006, dated 2013)
